Data reported in US20050239656A1, “Pyridine compounds or salts thereof and herbicides containing the same” (priority 2002, published 2005).

How the values were obtained:
[1] = test system: soybean; test: Test Example 1: foliage treatment, upland pot test; format: in vivo, Glycine max Merr.; conditions: crop, active ingredient 1000 g/ha, observed 18th to 23rd day, 0 = non-treated, 100 = complete kill
Text: (§1) Upland field soil was put into a 1/170,000 ha pot, and seed of various plants were sown. Then, when the plants reached predetermined leaf stages ((1) barnyardgrass: 1.3 to 2.8 leaf stages, (2) crabgrass: 1.0 to 2.8 leaf stages, (3) green foxtail: 1.3 to 2.6 leaf stages, (4) redroot pigweed: 0.1 to 1.2 leaf stages, (5) prickly sida: 0.1 to 1.2 leaf stages, (6) velvetleaf: 0.1 to 1.2 leaf stages, (7) tall morningglory: 0.1 to 1.5 leaf stages, (8) rice: 1.2 to 2.6 leaf stages, (9) wheat: 1.3 to 2.4 leaf stages, (10) corn, 2.1 to 3.2 leaf stages, (11) soybean: 0.1 to 0.4 leaf stage), a wettable powder or emulsifiable concentrate having the compound of the present invention formulated in accordance with a usual formulation method, was weighed so that the active ingredient would be a predetermined amount, and diluted with water in an amount of 500 L/ha. To the diluted solution, 0.1% (v/v) of agricultural spreader was added. The herbicide thus adjusted was applied by a small size sprayer for foliage treatment. On the 18th to 23rd days after the application of the herbicide, the growth of the respective plants was visually observed, and the herbicidal effects were evaluated by the growth controlling degrees (%) ranging from 0 (equivalent to the non-treated plot) to 100 (complete kill), whereby the results shown in Table 3, were obtained.

[2] = test system: barnyardgrass; test: Test Example 1: foliage treatment, upland pot test; format: in vivo, Echinochloa crus-galli L.; conditions: active ingredient 1000 g/ha, observed 18th to 23rd day, 0 = non-treated, 100 = complete kill
Text: as §1

[3] = test system: velvetleaf; test: Test Example 1: foliage treatment, upland pot test; format: in vivo, Abutilon theophrasti MEDIC.; conditions: active ingredient 1000 g/ha, observed 18th to 23rd day, 0 = non-treated, 100 = complete kill
Text: as §1

[4] = test system: corn; test: Test Example 1: foliage treatment, upland pot test; format: in vivo, Zea mays L.; conditions: crop, active ingredient 1000 g/ha, observed 18th to 23rd day, 0 = non-treated, 100 = complete kill
Text: as §1

[5] = test system: rice; test: Test Example 1: foliage treatment, upland pot test; format: in vivo, Oryza sativa L.; conditions: crop, active ingredient 1000 g/ha, observed 18th to 23rd day, 0 = non-treated, 100 = complete kill
Text: as §1

[6] = test system: prickly sida; test: Test Example 1: foliage treatment, upland pot test; format: in vivo, Sida spinosa L.; conditions: active ingredient 1000 g/ha, observed 18th to 23rd day, 0 = non-treated, 100 = complete kill
Text: as §1

[7] = test system: redroot pigweed; test: Test Example 1: foliage treatment, upland pot test; format: in vivo, Amaranthus retroflexus L.; conditions: active ingredient 1000 g/ha, observed 18th to 23rd day, 0 = non-treated, 100 = complete kill
Text: as §1

[8] = test system: japanese ribbon wapato; test: Test Example 3: paddy pot test, application under submerged conditions; format: in vivo, Sagittaria pygniaea; conditions: submerged application at primary leaf stage, visually observed 14 days after application, 0 = non-treated, 100 = complete kill
How it was run: (§2)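 Visual growth-control rating (0 = untreated, 100 = complete kill) 14 days after treatment. The formulated compound, as a diluted wettable powder or emulsifiable concentrate, went into 3–4 cm flood water at a predetermined active-ingredient dose once the weeds reached 0.5 leaf stage (wapato: primary leaf stage).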

[9] = test system: corn; test: Test Example 2: soil surface treatment, upland pot test; format: in vivo, Zea mays L.; conditions: active ingredient 500 g/ha
How it was run: (§3)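 Seeds were sown in upland field soil in 1/170,000 ha pots. One day later, a wettable powder or emulsifiable concentrate at a predetermined active-ingredient rate, diluted in water at 1,500 L/ha, was sprayed onto the soil surface. Growth control (%) was scored visually 20–28 days after application (0 = untreated, 100 = complete kill).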

[10] = test system: redroot pigweed; test: as above; format: in vivo, Amaranthus retroflexus L.; conditions: active ingredient 500 g/ha
How it was run: as §3

[11] = test system: rice (var. Nihonbare); test: Test Example 3: paddy pot test, transplanted rice; format: in vivo, Oryza sativa L.; conditions: applied 4th day after transplantation, visually observed 21st day after application, 0 = non-treated, 100 = complete kill
How it was run: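 Rice (var. Nihonbare) at 2 leaf stage transplanted 3 cm deep into puddled paddy soil under 3–4 cm flooding; on day 4 after transplanting, diluted wettable powder or emulsifiable concentrate applied by pipette under submerged conditions at a set active-ingredient dose. Growth scored visually 21 days after application, 0 (untreated) to 100 (complete kill) %.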

[12] = test system: rice; test: Test Example 2: soil surface treatment, upland pot test; format: in vivo, Oryza sativa L.; conditions: active ingredient 500 g/ha
How it was run: as §3

[13] = test system: crabgrass; test: as above; format: in vivo, Digitaria sanguinalis L.; conditions: active ingredient 500 g/ha
How it was run: as §3

[14] = test system: soybean; test: as above; format: in vivo, Glycine max Merr.; conditions: active ingredient 500 g/ha
How it was run: as §3

[15] = test system: japanese bulrush; test: Test Example 3: paddy pot test, application under submerged conditions; format: in vivo, Scirpus juncoides; conditions: submerged application at 0.5 leaf stage, visually observed 14 days after application, 0 = non-treated, 100 = complete kill
How it was run: as §2

[16] = test system: barnyardgrass; test: as above; format: in vivo, Echinochloa crus-galli L.; conditions: submerged application at 0.5 leaf stage, visually observed 14 days after application, 0 = non-treated, 100 = complete kill
How it was run: as §2

[17] = test system: prickly sida; test: Test Example 2: soil surface treatment, upland pot test; format: in vivo, Sida spinosa L.; conditions: active ingredient 500 g/ha
How it was run: as §3

[18] = test system: barnyardgrass; test: as above; format: in vivo, Echinochloa crus-galli L.; conditions: active ingredient 500 g/ha
How it was run: as §3

[19] = test system: green foxtail; test: as above; format: in vivo, Setaria viridis L.; conditions: active ingredient 500 g/ha
How it was run: as §3

[20] = test system: velvetleaf; test: as above; format: in vivo, Abutilon theophrasti MEDIC.; conditions: active ingredient 500 g/ha
How it was run: as §3

[21] = observed day 21, 0 = non-treated, 100 = complete kill

| SMILES | Growth controlling degree (%) Corn ([9]; observed 20th to 28th day) [%] | Growth controlling degree (%) Redroot pigweed ([10]; observed 20th to 28th day) [%] | Growth controlling degree (%) Rice ([12]; observed 20th to 28th day) [%] | Growth controlling degree (%) Crabgrass ([13]; observed 20th to 28th day) [%] | Growth controlling degree (%) Soyabean ([14]; observed 20th to 28th day) [%] | Growth controlling degree (%) Prickly sida ([17]; observed 20th to 28th day) [%] | Growth controlling degree (%) Barnyardgrass ([18]; observed 20th to 28th day) [%] | Growth controlling degree (%) Green foxtail ([19]; observed 20th to 28th day) [%] | Growth controlling degree (%) Velvetleaf ([20]; observed 20th to 28th day) [%] | Growth controlling degree (%) Japanese ribbon wapato ([8]; active ingredient 250 g/ha) [%] | Growth controlling degree (%) Rice ([11]; active ingredient 250 g/ha) [%] | Growth controlling degree (%) Japanese bulrush ([15]; active ingredient 250 g/ha) [%] | Growth controlling degree (%) Barnyardgrass ([16]; active ingredient 250 g/ha) [%] | Growth controlling degree (%) Corn [9, 21] [%] | Growth controlling degree (%) Redroot pigweed [10, 21] [%] | Growth controlling degree (%) Rice [12, 21] [%] | Growth controlling degree (%) Crabgrass [13, 21] [%] | Growth controlling degree (%) Soyabean [14, 21] [%] | Growth controlling degree (%) Prickly sida [17, 21] [%] | Growth controlling degree (%) Barnyardgrass [18, 21] [%] | also measured |
| --- | --- | --- | --- | --- | --- | --- | --- | --- | --- | --- | --- | --- | --- | --- | --- | --- | --- | --- | --- | --- | --- |
| CC(C)C(c1cnccc1Cl)N(C)C(=O)Cc1cccc(C(F)(F)F)c1F (stereo not shown) [I-74] | – | – | – | – | – | – | – | – | – | – | – | – | – | – | – | – | – | – | – | – | Growth controlling degree (%) Soybean [1]: 30%; Growth controlling degree (%) Barnyardgrass [2]: 50%; Growth controlling degree (%) Velvetleaf [3]: 90%; Growth controlling degree (%) Corn [4]: 30%; Growth controlling degree (%) Rice [5]: 20%; Growth controlling degree (%) Prickly sida [6]: 80%; Growth controlling degree (%) Redroot pigweed [7]: 60% |
| CC=CC(=O)N(C)C(c1cnccc1C(F)(F)F)C(C)C (stereo not shown) [I-180] | 10 | 80 | 50 | 100 | 10 | 80 | 100 | 100 | 50 | – | – | – | – | – | – | – | – | – | – | – | Growth controlling degree (%) Japanese ribbon wapato ([8]; active ingredient 500 g/ha): 60%; Growth controlling degree (%) Rice ([11]; active ingredient 500 g/ha): 30%; Growth controlling degree (%) Japanese bulrush ([15]; active ingredient 500 g/ha): 100%; Growth controlling degree (%) Barnyardgrass ([16]; active ingredient 500 g/ha): 98% |
| CC(C)C(c1cnccc1C(F)(F)F)N(C)C(=O)CC1C=CCC1 (stereo not shown) [I-183] | 10 | 95 | 60 | 100 | 10 | 30 | 100 | 100 | 50 | – | – | – | – | – | – | – | – | – | – | – | Growth controlling degree (%) Japanese ribbon wapato ([8]; active ingredient 500 g/ha): 70%; Growth controlling degree (%) Rice ([11]; active ingredient 500 g/ha): 10%; Growth controlling degree (%) Japanese bulrush ([15]; active ingredient 500 g/ha): 100%; Growth controlling degree (%) Barnyardgrass ([16]; active ingredient 500 g/ha): 100% |
| CC(C)C(c1cnccc1C(F)(F)F)N(C)C(=O)N(C)c1ccccc1 (stereo not shown) [I-232] | 30 | 80 | 30 | 100 | 0 | 95 | 100 | 100 | 70 | – | – | – | – | – | – | – | – | – | – | – | Growth controlling degree (%) Japanese ribbon wapato ([8]; active ingredient 500 g/ha): 70%; Growth controlling degree (%) Rice ([11]; active ingredient 500 g/ha): 60%; Growth controlling degree (%) Japanese bulrush ([15]; active ingredient 500 g/ha): 90%; Growth controlling degree (%) Barnyardgrass ([16]; active ingredient 500 g/ha): 100% |
| Cc1cc(Cl)ccc1OCC(=O)N(C)C(c1cnccc1C(F)(F)F)C(C)C (stereo not shown) [I-234] | 0 | 70 | 10 | 98 | 0 | 50 | 95 | 70 | 30 | 40 | 0 | 90 | 100 | – | – | – | – | – | – | – | – |
| COc1ccc(OCC(=O)N(C)C(c2cnccc2C(F)(F)F)C(C)C)cc1 (stereo not shown) [I-244] | 30 | 60 | 20 | 80 | 0 | 60 | 50 | 80 | 0 | 50 | 0 | 95 | 100 | – | – | – | – | – | – | – | – |
| CCc1ccc(OCC(=O)N(C)C(c2cnccc2C(F)(F)F)C(C)C)cc1 (stereo not shown) [I-249] | – | – | – | – | – | – | – | – | – | 0 | 0 | 98 | 98 | 20 | 60 | 20 | 98 | 20 | 80 | 95 | Growth controlling degree (%) Green foxtail [19, 21]: 98%; Growth controlling degree (%) Velvetleaf [20, 21]: 50% |
| CC(C)C(c1cnccc1C(F)(F)F)N(C)C(=O)COc1ccc(Br)cc1 (stereo not shown) [I-255] | – | – | – | – | – | – | – | – | – | 20 | 0 | 95 | 100 | 30 | 70 | 20 | 98 | 10 | 98 | 95 | Growth controlling degree (%) Green foxtail [19, 21]: 98%; Growth controlling degree (%) Velvetleaf [20, 21]: 70% |
| CC(C)C(c1cnccc1C(F)(F)F)N(C)C(=O)CSc1ccccc1 (stereo not shown) [I-256] | – | – | – | – | – | – | – | – | – | 20 | 0 | 90 | 100 | 10 | 80 | 0 | 98 | 0 | 10 | 70 | Growth controlling degree (%) Green foxtail [19, 21]: 100%; Growth controlling degree (%) Velvetleaf [20, 21]: 0% |
| CCN(C(=O)COc1ccccc1)C(c1cnccc1C(F)(F)F)C(C)C (stereo not shown) [I-259] | – | – | – | – | – | – | – | – | – | 90 | 40 | 70 | 98 | 30 | 50 | 10 | 75 | 0 | 40 | 70 | Growth controlling degree (%) Green foxtail [19, 21]: 98%; Growth controlling degree (%) Velvetleaf [20, 21]: 10% |
